Results taken from patent US8481544B2, “Antibacterial compositions” (Biota Europe Limited, priority 2006, dated 2013).
≈ marks a conversion by molar mass, not a printed value.

Each molecule was assayed on Enterococcus faecalis ATCC 29212 (assay: MIC against Enterococcus faecalis ATCC 29212). Conditions: ATCC29212; Enterococcus faecalis ATCC 29212; read-out: MICs against Enterococcus faecalis, Activity.
Type: cell-based
How it was run: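 MIC measured by broth microdilution or agar dilution following CLSI guidelines (M7-A7 for aerobes, M11-A6 for anaerobes).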
`CCNC(=O)Nc1nc2cc(-c3cccnc3)cc(-c3cc(Cl)ccn3)c2s1` [Example 127, 1-[7-(4-Chloro-pyridin-2-yl)-5-pyridin-3-yl-benzothiazol-2-yl]-3-ethyl-urea] gave an MIC of less than 0.25 µg/mL.
For `CCNC(=O)Nc1nc2cc(-c3cccnc3)cc(-c3ncccc3C(F)(F)F)c2s1` [Example 128, 1-Ethyl-3-[5-pyridin-3-yl-7-(3-trifluoromethyl-pyridin-2-yl)-benzothiazol-2-yl]-urea], the MIC was 0.25 to 1 µg/mL (≈ 0.564 to 2.26 µM).
In the case of `CCNC(=O)Nc1nc2cc(-c3cccnc3)cc(-c3ccc(C(F)(F)F)cn3)c2s1` [Example 129, 1-Ethyl-3-[5-pyridin-3-yl-7-(5-trifluoromethyl-pyridin-2-yl)-benzothiazol-2-yl]-urea], the MIC is reported as 0.25 to 1 µg/mL (≈ 0.564 to 2.26 µM).
`CCNC(=O)Nc1nc2cc(-c3cccnc3)cc(-c3ccc(Cl)cn3)c2s1` [Example 130, 1-[7-(5-Chloro-pyridin-2-yl)-5-pyridin-3-yl-benzothiazol-2-yl]-3-ethyl-urea] showed an MIC of less than 0.25 µg/mL.
`CCNC(=O)Nc1nc2cc(-c3cccnc3)cc(-c3cnc(N)cn3)c2s1` [Example 131, 1-[7-(5-Amino-pyrazin-2-yl)-5-pyridin-3-yl-benzothiazol-2-yl]-3-ethyl-urea] gave an MIC of less than 0.25 µg/mL.
`CCNC(=O)Nc1nc2cc(-c3cccnc3)cc(-c3ccc(CN(C)C)cn3)c2s1` [Example 132, 1-[7-(5-Dimethylaminomethyl-pyridin-2-yl)-5-pyridin-3-yl-benzothiazol-2-yl]-3-ethyl-urea] showed an MIC of 2 to 16 µg/mL (≈ 4.62 to 37 µM).
`CCNC(=O)Nc1nc2cc(-c3ccc(NC(C)=O)nc3)cc(-c3ccccn3)c2s1` [Example 133, N-{5-[2-(3-Ethyl-ureido)-7-pyridin-2-yl-benzothiazol-5-yl]-pyridin-2-yl}-acetamide] showed an MIC of less than 0.25 µg/mL.
`CCNC(=O)Nc1nc2cc(-c3ccc(NC(C)=O)nc3)cc(-c3cnccn3)c2s1` [Example 134, N-{5-[2-(3-Ethyl-ureido)-7-pyrazin-2-yl-benzothiazol-5-yl]-pyridin-2-yl}-acetamide] gave an MIC of less than 0.25 µg/mL.
`CCNC(=O)Nc1nc2cc(-c3ccc(NC(C)=O)nc3)cc(-c3ccc(N)cn3)c2s1` [Example 135, N-{5-[7-(5-Amino-pyridin-2-yl)-2-(3-ethyl-ureido)-benzothiazol-5-yl]-pyridin-2-yl}-acetamide] showed an MIC of 0.25 to 1 µg/mL (≈ 0.559 to 2.23 µM).
`CCNC(=O)Nc1nc2cc(-c3ccc(NC(C)=O)nc3)cc(-c3ccc(C#N)cn3)c2s1` [Example 136, N-{5-[7-(5-Cyano-pyridin-2-yl)-2-(3-ethyl-ureido)-benzothiazol-5-yl]-pyridin-2-yl}-acetamide] showed an MIC of less than 0.25 µg/mL.
For `CCNC(=O)Nc1nc2cc(-c3ccc(NC(C)=O)nc3)cc(-c3nccc4cc[nH]c34)c2s1` [Example 137, N-{5-[2-(3-Ethyl-ureido)-7-(1H-pyrrolo[2,3-c]pyridin-7-yl)-benzothiazol-5-yl]-pyridin-2-yl}-acetamide], the MIC was 0.25 to 1 µg/mL (≈ 0.53 to 2.12 µM).
`CCNC(=O)Nc1nc2cc(-c3ccc(N)nc3)cc(-c3ccccn3)c2s1` [Example 138, 1-[5-(6-Amino-pyridin-3-yl)-7-pyridin-2-yl-benzothiazol-2-yl]-3-ethyl-urea] showed an MIC of less than 0.25 µg/mL.
For `CCNC(=O)Nc1nc2cc(-c3cnc(N)nc3)cc(-c3cnccn3)c2s1` [Example 139, 1-[5-(2-Amino-pyrimidin-5-yl)-7-pyrazin-2-yl-benzothiazol-2-yl]-3-ethyl-urea], the MIC was less than 0.25 µg/mL.
`CCNC(=O)Nc1nc2cc(-c3cccnc3)cc(-n3cccn3)c2s1` [Example 140, 1-Ethyl-3-(7-pyrazol-1-yl-5-pyridin-3-yl-benzothiazol-2-yl)-urea] showed an MIC of 0.25 to 1 µg/mL (≈ 0.686 to 2.74 µM).
Work on `CCNC(=O)Nc1nc2cc(-n3ccccc3=O)cc(-c3cccnc3)c2s1` [Example 141, 1-Ethyl-3-[5-(2-oxo-2H-pyridin-1-yl)-7-pyridin-3-yl-benzothiazol-2-yl]-urea] yielded an MIC of 2 to 16 µg/mL (≈ 5.11 to 40.9 µM).
In the case of `CCNC(=O)Nc1nc2cc(-n3ccnc3)cc(-c3ccccn3)c2s1` [Example 142, 1-Ethyl-3-(5-imidazol-1-yl-7-pyridin-2-yl-benzothiazol-2-yl)-urea], the MIC is reported as less than 0.25 µg/mL.
`CCNC(=O)Nc1nc2cc(-c3cncc(OC)c3)cc(-c3cncc(OC)c3)c2s1` [Example 143, 1-[5,7-Bis-(5-methoxy-pyridin-3-yl)-benzothiazol-2-yl]-3-ethyl-urea] gave an MIC of 0.25 to 1 µg/mL (≈ 0.574 to 2.3 µM).
With `CCNC(=O)Nc1nc2cc(-c3ccc(CO)cc3)cc(-c3ccc(CO)cc3)c2s1` [Example 144, 1-[5,7-Bis-(4-hydroxymethyl-phenyl)-benzothiazol-2-yl]-3-ethyl-urea] the MIC was 0.25 to 1 µg/mL (≈ 0.577 to 2.31 µM).
Molecule `CCNC(=O)Nc1nc2cc(-c3cnc(N)nc3)cc(-c3cnc(N)nc3)c2s1` [Example 145, 1-[5,7-Bis-(2-amino-pyrimidin-5-yl)-benzothiazol-2-yl]-3-ethyl-urea] has an MIC of 2 to 16 µg/mL (≈ 4.91 to 39.3 µM).
Work on `CCNC(=O)Nc1nc2cc(-c3ccc(CN4CCOCC4)cc3)cc(-c3ccc(CN4CCOCC4)cc3)c2s1` [Example 146, 1-[5,7-Bis-(4-morpholin-4-ylmethyl-phenyl)-benzothiazol-2-yl]-3-ethyl-urea] yielded an MIC of 2 to 16 µg/mL (≈ 3.5 to 28 µM).
For `CCNC(=O)Nc1nc2cc(-c3cncnc3)cc(-c3cncnc3)c2s1` [Example 147, 1-(5,7-Di-pyrimidin-5-yl-benzothiazol-2-yl)-3-ethyl-urea], the MIC was 2 to 16 µg/mL (≈ 5.3 to 42.4 µM).
Molecule `CCNC(=O)Nc1nc2cc(-c3ccc(NC(C)=O)nc3)cc(-c3ccc(NC(C)=O)nc3)c2s1` [Example 148, N-{5-[7-(6-Acetylamino-pyridin-3-yl)-2-(3-ethyl-ureido)-benzothiazol-5-yl]-pyridin-2-yl}-acetamide] has an MIC of 0.25 to 1 µg/mL (≈ 0.511 to 2.04 µM).
`CCNC(=O)Nc1nc2cc(-c3cccnc3)cc(N)c2s1` [Example 149, 1-(7-Amino-5-pyridin-3-yl-benzothiazol-2-yl)-3-ethyl-urea] gave an MIC of 2 to 16 µg/mL (≈ 6.38 to 51.1 µM).
For `CCNC(=O)Nc1nc2cc(-c3cccnc3)cc(NC(=O)NCC)c2s1` [Example 150, 1-Ethyl-3-[2-(3-ethyl-ureido)-5-pyridin-3-yl-benzothiazol-7-yl]-urea], the MIC was 2 to 16 µg/mL (≈ 5.2 to 41.6 µM).
With `CCNC(=O)Nc1nc2cc(-c3cccnc3)cc(C(=O)OC)c2s1` [Example 151, 2-(3-Ethyl-ureido)-5-pyridin-3-yl-benzothiazole-7-carboxylic acid methyl ester] the MIC was 0.25 to 1 µg/mL (≈ 0.701 to 2.81 µM).
Molecule `CCNC(=O)Nc1nc2cc(-c3cccnc3)cc(C(=O)NCC)c2s1` [Example 152, 2-(3-Ethyl-ureido)-5-pyridin-3-yl-benzothiazole-7-carboxylic acid ethylamide] has an MIC of 2 to 16 µg/mL (≈ 5.41 to 43.3 µM).
For `CCNC(=O)Nc1nc2cc(-c3cccnc3)cc(C(=O)NN)c2s1` [Example 153, 1-Ethyl-3-(7-hydrazinocarbonyl-5-pyridin-3-yl-benzothiazol-2-yl)-urea], the MIC was 2 to 16 µg/mL (≈ 5.61 to 44.9 µM).
`CCNC(=O)Nc1nc2cc(-c3cnc(N)nc3)cc(-c3ccccn3)c2s1` [Example 154, 1-[5-(2-Amino-pyrimidin-5-yl)-7-pyridin-2-yl-benzothiazol-2-yl]-3-ethyl-urea] showed an MIC of less than 0.25 µg/mL.
With `CCNC(=O)Nc1nc2cc(-c3ccccn3)cc(-c3cccnc3)c2s1` [Example 155, 1-Ethyl-3-(5-pyridin-2-yl-7-pyridin-3-yl-benzothiazol-2-yl)-urea] the MIC was 2 to 16 µg/mL (≈ 5.33 to 42.6 µM).
In the case of `C=CCc1cc(-c2cccnc2)cc2nc(NC(=O)NCC)sc12` [Example 156, 1-(7-Allyl-5-pyridin-3-yl-benzothiazol-2-yl)-3-ethyl-urea], the MIC is reported as 0.25 to 1 µg/mL (≈ 0.739 to 2.95 µM).
`CCNC(=O)Nc1nc2cc(-c3cccnc3)cc(-c3csc(OC)n3)c2s1` [Example 157, 1-Ethyl-3-[7-(2-methoxy-thiazol-4-yl)-5-pyridin-3-yl-benzothiazol-2-yl]-urea] gave an MIC of 0.25 to 1 µg/mL (≈ 0.608 to 2.43 µM).
Work on `CCNC(=O)Nc1nc2cc(-c3cccnc3)cc(-c3cscn3)c2s1` [Example 158, 1-Ethyl-3-(5-pyridin-3-yl-7-thiazol-4-yl-benzothiazol-2-yl)-urea] yielded an MIC of 0.25 to 1 µg/mL (≈ 0.655 to 2.62 µM).
For `CCNC(=O)Nc1nc2cc(-c3cccnc3)cc(-c3cncnc3)c2s1` [Example 159, 1-Ethyl-3-(5-pyridin-3-yl-7-pyrimidin-5-yl-benzothiazol-2-yl)-urea], the MIC was 0.25 to 1 µg/mL (≈ 0.664 to 2.66 µM).
`CCNC(=O)Nc1nc2cc(-c3cccnc3)cc(-c3cccnn3)c2s1` [Example 160, 1-Ethyl-3-(7-pyridazin-3-yl-5-pyridin-3-yl-benzothiazol-2-yl)-urea] showed an MIC of 2 to 16 µg/mL (≈ 5.31 to 42.5 µM).
`CCNC(=O)Nc1nc2cc(-c3cccnc3)cc(-c3cncs3)c2s1` [Example 161, 1-Ethyl-3-(5-pyridin-3-yl-7-thiazol-5-yl-benzothiazol-2-yl)-urea] was tested, and the MIC was less than 0.25 µg/mL.
`CCNC(=O)Nc1nc2cc(-c3cccnc3)cc(-c3nccn3C)c2s1` [Example 162, 1-Ethyl-3-[7-(1-methyl-1H-imidazol-2-yl)-5-pyridin-3-yl-benzothiazol-2-yl]-urea] gave an MIC of 2 to 16 µg/mL (≈ 5.28 to 42.3 µM).
In the case of `CCNC(=O)Nc1nc2cc(-c3cccnc3)cc(-c3cncn3C)c2s1` [Example 164, 1-Ethyl-3-[7-(3-methyl-3H-imidazol-4-yl)-5-pyridin-3-yl-benzothiazol-2-yl]-urea], the MIC is reported as 2 to 16 µg/mL (≈ 5.28 to 42.3 µM).
In the case of `CCNC(=O)Nc1nc2cc(-c3cccnc3)cc(-c3ncco3)c2s1` [Example 165, 1-Ethyl-3-(7-oxazol-2-yl-5-pyridin-3-yl-benzothiazol-2-yl)-urea], the MIC is reported as 0.25 to 1 µg/mL (≈ 0.684 to 2.74 µM).
In the case of `CCNC(=O)Nc1nc2cc(-c3cccnc3)cc(-c3cccc(N4CCOCC4)n3)c2s1` [Example 166, 1-Ethyl-3-[7-(6-morpholin-4-yl-pyridin-2-yl)-5-pyridin-3-yl-benzothiazol-2-yl]-urea], the MIC is reported as 0.25 to 1 µg/mL (≈ 0.543 to 2.17 µM).
For `CCNC(=O)Nc1nc2cc(-c3cccnc3)cc(-c3cccc(N(C)C)n3)c2s1` [Example 168, 1-[7-(6-Dimethylamino-pyridin-2-yl)-5-pyridin-3-yl-benzothiazol-2-yl]-3-ethyl-urea], the MIC was 0.25 to 1 µg/mL (≈ 0.597 to 2.39 µM).
With `CCNC(=O)Nc1nc2cc(-c3cccnc3)cc(-c3cc(N(C)C)ccn3)c2s1` [Example 169, 1-[7-(4-Dimethylamino-pyridin-2-yl)-5-pyridin-3-yl-benzothiazol-2-yl]-3-ethyl-urea] the MIC was 0.25 to 1 µg/mL (≈ 0.597 to 2.39 µM).
`CCNC(=O)Nc1nc2cc(-c3cccnc3)cc(-c3csc(O)n3)c2s1` [Example 172, 1-Ethyl-3-[7-(2-hydroxy-thiazol-4-yl)-5-pyridin-3-yl-benzothiazol-2-yl]-urea] showed an MIC of 2 to 16 µg/mL (≈ 5.03 to 40.3 µM).
`CCNC(=O)Nc1nc2cc(-c3cccnc3)cc(-c3cccc(O)n3)c2s1` [Example 173, 1-Ethyl-3-[7-(6-hydroxy-pyridin-2-yl)-5-pyridin-3-yl-benzothiazol-2-yl]-urea] was tested, and the MIC was 2 to 16 µg/mL (≈ 5.11 to 40.9 µM).
